# In patent publication US6121252A, “Phosphinic acid derivatives” (priority 1998, dated 2000):
# Peptide text beside a SMILES is read from it.
# Legend:
# cortical cell cultures [1] = assay: In vitro ischemia assay (KCN/2-DG) in cortical cell cultures; assay type: cell-based, rat; conditions: Rattus norvegicus, 1 h, read-out: EC50 (50% reduction in glutamate toxicity following an ischemic insult); KCN/2-DG insult, compound during insult and one hour thereafter
# dopaminergic neurons = assay: Parkinson's Disease model: MPTP lesioned mice; assay type: in vivo, CD1 mice
# Description: To examine the effect of NAALADase inhibitors on Parkinson's Disease in vivo, MPTP lesioned mice were treated with 2-(phosphonomethyl)pentanedioicacid or a vehicle.
# MPTP lesioning of dopaminergic neurons in mice was used as an animal model of Parkinson's Disease, as described by Steiner, Proc. Natl. Acad. Sci., Vol. 94, pp. 2019-2024 (March 1997). In brief, four week old male CD1 white mice were dosed IP with 30 mg/kg of MPTP for 5 days. […] At 18 days following MPTP treatment, the mice were sacrificed and their brains were removed and sectioned. Immunostaining was performed on saggital and coronal brain sections using anti-tyrosine hydroxylase (TH) antibodies to quantitate survival and recovery of dopaminergic neurons.
# NAALADase = target: T1, NAALADase (Rattus norvegicus, UniProt P70627); assay: In vitro inhibition of NAALADase activity; assay type: biochemical
# T1 construct: synaptosomal protein; from tissue; host or cells: synaptosomes (brain tissue)
# Description: "Inhibition", in the context of enzymes, refers to reversible enzyme inhibition such as competitive, uncompetitive and non-competitive inhibition. Competitive, uncompetitive and non-competitive inhibition can be distinguished by the effects of an inhibitor on the reaction kinetics of an enzyme. […] The affinity between the inhibitor and the enzyme may be measured by the inhibitor constant, Ki, which is defined as: [formula] wherein [E] is the concentration of the enzyme, [I] is the concentration of the inhibitor, and [EI] is the concentration of the enzyme-inhibitor complex formed by the reaction of the enzyme with the inhibitor. Unless otherwise specified, Ki as used herein refers to the affinity between the inventive compounds and NAALADase.
# Various compounds of formula I were tested for in vitro inhibition of NAALADase activity.
# Substrate and product were resolved by anion-exchange liquid chromatography. […] Quisqualate (100 μM) was included in parallel assay tubes to confirm the specificity of the measurements.
# cortical cell cultures [2] = assay: In vitro toxicity of NAAG in cortical cell cultures; assay type: cell-based; conditions: Rattus norvegicus, 20 min
# Description: Experiments are performed after 21 days in cultures.
# At the end of exposure, the cells are washed once with HEPES buffered saline solution and then replaced with serum free modified Earle's basal medium. The cultures are then returned to the CO2 incubator for 24 hour recovery.
# This control measurement is subtracted from each experimental point.
# [3] = tested on: spinal cord organotypic cultures; assay: ALS model: ChAT activity of spinal cord organotypic cultures with THA; assay type: cell-based, rat; conditions: Rattus norvegicus, THA alone, 100 μM
# Description: Organotypic cultures were prepared from lumbar spinal cord of 8 day old rats, as described by Rothstein et al., J. Neurochem., Vol. 65, No. 2 (1995), and Rothstein et al., Proc. Natl. Acad. Sci. USA, Vol. 90, pp. 6591-6595 (July 1993). In brief, lumbar spinal cords were removed and sliced into […]-thick-dorsal-ventral sections, and five slices were placed on Millipore CM semipermeable 30-mm-diameter membrane inserts. The inserts were placed on 1 ml of culture medium in 35-mm-diameter culture wells. Culture medium consisted of 50% minimal essential medium and phosphate-free HEPES (25 mM), 25% heat-inactivated horse serum, and 25 Hanks' balanced salt solution (GIBCO) supplemented with D-glucose (25.6 mg/ml) and glutamine (2 mM), at a final pH of 7.2. Antibiotic and antifungal agents were not used. Cultures were incubated at 37° C. in 5% CO2 containing humidified environment (Forma Scientific). Culture medium, along with any added pharmacological agents, was changed twice weekly.
# Drugs were incubated for an additional 13 to 20 days with the 100 μM THA. At the end of this period, cultures were collected assayed for ChAT activity as described below.
# To determine choline acetyltransferase (CHAT) activity, the spinal cord tissues in each dish (five slices) were pooled and frozen (-75° C.) until assay. CHAT activity was measured radiometrically by described methods using [^3 H]acetyl-CoA (Amersham; Fonnum, 1975). Protein content of tissue homogenate was determined by a Coomassi Protein Assay kit (Pierce, Rockford, Ill.).
# LNCaP tumors = assay: In vivo LNCaP tumor model, subcutaneous Compounds 16, 17, 18; parameters: species or system ncr nude male mice; conditions: for tumor response (in words): 1 and 3 mg/kg s.c.
# Description: Ncr nude male mice, age 5 to 6 weeks, were injected in the right flank with 5×10^6 LNCaP cells in Matrigel™ (0.1 ml total injection volume). Two weeks following cell injection, daily s.c. injections of Compound 16, Compound 17, and Compound 18 were initiated at the following doses: 1 and 3 mg/kg. Controls received 50 mM HEPES s.c. daily. Once tumors were palpable they were measured twice a week.
# Response to treatment was monitored in two ways. First, mean tumor volume for each group was presented as tumor:control ratio (% T/C) and these values were compared at one point in time. Second, tumor volume versus time was monitored.
# T1 sequence (P70627 whole entry): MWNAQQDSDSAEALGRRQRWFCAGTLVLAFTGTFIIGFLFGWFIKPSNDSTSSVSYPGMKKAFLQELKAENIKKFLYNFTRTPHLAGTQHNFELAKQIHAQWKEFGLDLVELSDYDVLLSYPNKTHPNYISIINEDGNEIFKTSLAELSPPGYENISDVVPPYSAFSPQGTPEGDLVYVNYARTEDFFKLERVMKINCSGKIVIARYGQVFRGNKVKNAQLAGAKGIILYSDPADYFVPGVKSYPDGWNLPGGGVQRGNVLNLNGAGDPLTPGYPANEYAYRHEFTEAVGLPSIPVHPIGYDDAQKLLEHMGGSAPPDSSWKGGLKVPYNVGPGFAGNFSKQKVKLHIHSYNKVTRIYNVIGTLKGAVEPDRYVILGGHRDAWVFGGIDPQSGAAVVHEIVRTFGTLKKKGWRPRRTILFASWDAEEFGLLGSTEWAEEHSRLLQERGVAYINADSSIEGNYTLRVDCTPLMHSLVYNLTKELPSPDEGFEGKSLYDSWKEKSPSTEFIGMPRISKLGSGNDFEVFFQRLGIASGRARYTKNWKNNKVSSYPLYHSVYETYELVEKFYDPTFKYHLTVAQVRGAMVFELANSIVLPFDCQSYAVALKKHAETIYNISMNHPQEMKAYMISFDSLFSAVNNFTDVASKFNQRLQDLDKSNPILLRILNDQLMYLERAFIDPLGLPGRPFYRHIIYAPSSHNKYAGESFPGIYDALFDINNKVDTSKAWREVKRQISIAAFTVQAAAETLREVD
compound,measurement,setting,value
CC(C)(C)c1ccc(NCP(=O)(O)CC(CCC(=O)O)C(=O)O)cc1 (stereo not shown) [drawing 42],EC50,cortical cell cultures [1],34.6 nM
COc1ccc(NCP(=O)(O)CC(CCC(=O)O)C(=O)O)cc1 (stereo not shown) [drawing 40],EC50,cortical cell cultures [1],9.5 nM
CN1CC=C(c2ccccc2)CC1 [MPTP],loss of functional dopaminergic terminals,dopaminergic neurons; MPTP and vehicle vs non-lesioned mice,approximately 68%
same,Percent Striatal TH Innervation Density,"dopaminergic neurons; MPTP/vehicle, mean ± SEM",7.82 ± 0.68%
Cc1ccc(NCP(=O)(O)CC(CCC(=O)O)C(=O)O)cc1 (stereo not shown) [drawing 31],Ki,NAALADase,5.2 nM
O=C(O)CCC(CP(=O)(O)CNCc1ccccc1)C(=O)O (stereo not shown),EC50,cortical cell cultures [1],0.9 nM
Cc1ccc(NCP(=O)(O)CC(CCC(=O)O)C(=O)O)cc1 (stereo not shown) [drawing 41],EC50,cortical cell cultures [1],11.4 nM
O=C(O)CCC(CP(=O)(O)C(NC(=O)O)c1ccccc1)C(=O)O (stereo not shown),Ki,NAALADase,2000 nM
O=C(O)CCC(CP(=O)(O)C(NCc1ccccc1)c1ccccc1)C(=O)O (stereo not shown),EC50,cortical cell cultures [1],1 nM
"CC(=O)N[C@@H](CC(=O)O)C(=O)N[C@@H](CCC(=O)O)C(=O)O [NAAG, N-acetyl-aspartyl-glutamate] (Ac-Asp-Glu-OH)",cytotoxicity at 3 µM,cortical cell cultures [2],3.51%
same,cytotoxicity at 10 µM,cortical cell cultures [2],4.3 ± 3.12%
same,cytotoxicity at 30 µM,cortical cell cultures [2],11.4 ± 6.17%
same,cytotoxicity at 100 µM,cortical cell cultures [2],12.7 ± 5.5%
same,cytotoxicity at 300 µM,cortical cell cultures [2],13.5 ± 4%
same,cytotoxicity at 1000 µM,cortical cell cultures [2],21.5 ± 4.2%
same,cytotoxicity at 3000 µM,cortical cell cultures [2],45.1 ± 4.96%
"N[C@H](C(=O)O)[C@H](O)C(=O)O (relative stereo) [THA, threohydroxyaspartate]",activity at 100 µM,[3],36 ± 12.1%
O=C(O)CCC(CP(=O)(O)CN1C(=O)c2ccccc2C1=O)C(=O)O (stereo not shown),Ki,NAALADase,34.5 nM
CC(C)(C)c1ccc(NCP(=O)(O)CC(CCC(=O)O)C(=O)O)cc1 (stereo not shown) [drawing 32],Ki,NAALADase,2 nM
COc1ccc(NCP(=O)(O)CC(CCC(=O)O)C(=O)O)cc1 (stereo not shown) [drawing 30],Ki,NAALADase,2.5 nM
O=C(O)CCC(CP(=O)(O)CNS(=O)(=O)c1ccccc1)C(=O)O (stereo not shown),Ki,NAALADase,90 nM
2-[[[hydroxy(pyridyl)methyl]hydroxyphosphinyl]methyl]pentanedioic acid [Compound 18],"tumor size, % of control tumors",LNCaP tumors; 1 mg/kg s.c.,54 % of controls
same,"tumor size, % of control tumors",LNCaP tumors; 3 mg/kg s.c.,58 % of controls
same,tumor response (in words),LNCaP tumors,responded better
O=C(O)CCC(CP(=O)(O)CNc1ccc(F)cc1)C(=O)O (stereo not shown) [drawing 29],Ki,NAALADase,9 nM
"O=C(O)CCC(CP(=O)(O)Cc1cccc(C(F)(F)F)c1)C(=O)O (stereo not shown) [Compound 17, 2-[[(3-trifluoromethylbenzyl)hydroxyphosphinyl]methyl]pentanedioic acid]","tumor size, % of control tumors",LNCaP tumors; 1 mg/kg s.c.,74.1 % of controls
same,"tumor size, % of control tumors",LNCaP tumors; 3 mg/kg s.c.,82 % of controls
same,tumor response (in words),LNCaP tumors,responded minimally
O=C(O)CCC(CP(=O)(O)CNc1ccc(F)cc1)C(=O)O (stereo not shown) [drawing 39],EC50,cortical cell cultures [1],3.1 nM
"O=C(O)CCC(CP(=O)(O)Cc1c(F)c(F)c(F)c(F)c1F)C(=O)O (stereo not shown) [Compound 16, 2-[[(pentafluorobenzyl)hydroxyphosphinyl]methyl]pentanedioic acid]","tumor size, % of control tumors",LNCaP tumors; 1 mg/kg s.c.,78 % of controls
same,"tumor size, % of control tumors",LNCaP tumors; 3 mg/kg s.c.,41.4 % of controls
